Inconclusive results and toxic doses are left out.
Test system: CD2F1 mice, L1210 leukemia ip, survival T/C
Assay: NCI In Vivo Anticancer Drug Screen. Data for tumor model L1210 Leukemia (intraperitoneal) in CD2F1 (CDF1) mice
Details: endpoint: mean survival time, higher = longer survival
In short: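 In this screen, transplantable tumors were grown in mice given either the compound or its vehicle. Results were expressed as the treated measurement relative to the control measurement.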

[1] = dose: 25.0 mg/kg/injection, schedule: Q04DX002 (ip), vehicle: saline with Tween-80
[2] = dose: 50.0 mg/kg/injection, schedule: Q04DX002 (ip), vehicle: saline with Tween-80
[3] = dose: 100.0 mg/kg/injection, schedule: Q01DX001 (ip), vehicle: saline
[4] = dose: 200.0 mg/kg/injection, schedule: Q01DX001 (ip), vehicle: saline
[5] = dose: 400.0 mg/kg/injection, schedule: Q01DX001 (ip), vehicle: saline
[6] = dose: 100.0 mg/kg/injection, schedule: Q04DX002 (ip), vehicle: saline with Tween-80
[7] = dose: 100.0 mg/kg/injection, schedule: Q01DX001 (ip), vehicle: saline with Tween-80
[8] = dose: 200.0 mg/kg/injection, schedule: Q01DX001 (ip), vehicle: saline with Tween-80
[9] = dose: 100.0 mg/kg/injection, schedule: Q04DX003 (ip), vehicle: saline with Tween-80
[10] = dose: 200.0 mg/kg/injection, schedule: Q04DX003 (ip), vehicle: saline with Tween-80
[11] = dose: 400.0 mg/kg/injection, schedule: Q04DX003 (ip), vehicle: saline with Tween-80
[12] = dose: 100.0 mg/kg/injection, schedule: Q04DX003 (ip), vehicle: saline + alcohol
[13] = dose: 200.0 mg/kg/injection, schedule: Q04DX003 (ip), vehicle: saline + alcohol
[14] = dose: 400.0 mg/kg/injection, schedule: Q04DX003 (ip), vehicle: saline + alcohol
[15] = dose: 200.0 mg/kg/injection, schedule: Q04DX002 (ip), vehicle: saline with Tween-80

In the case of `C/C(=N/O)C1=C(O)C(Cc2ccccc2)NC1=O` (stereo not drawn), the T/C (dose: 12.5 mg/kg/injection, schedule: Q04DX002 (ip), vehicle: saline with Tween-80) is reported as 100 % of control, the T/C [1] is reported as 121 % of control and the T/C [2] is reported as 103 % of control.
For `CCOC(OCC)c1cc(=O)[nH]c(N)n1`, the T/C [3] was 103 % of control, the T/C [4] was 101 % of control and the T/C [5] was 100 % of control.
`O=C1[O][Hg][c]2cccc3cccc1c23` was tested, and the T/C (dose: 2.5 mg/kg/injection, schedule: Q01DX009 (ip), vehicle: saline with Tween-80) was 88 % of control, the T/C (dose: 5.0 mg/kg/injection, schedule: Q01DX009 (ip), vehicle: saline with Tween-80) was 94 % of control and the T/C (dose: 10.0 mg/kg/injection, schedule: Q01DX009 (ip), vehicle: saline with Tween-80) was 95 % of control.
For `CCOc1cc2ccc3c4cc(OC)c(OC)cc4c[n+](C)c3c2cc1OCC`, the T/C [1] was 107 % of control, the T/C [2] was 111 % of control and the T/C [6] was 103 % of control.
For `COc1ccc(Cl)cc1NC(=O)N/N=C(\C)CC(C)C`, the T/C [7] was 105 % of control, the T/C [8] was 95 % of control and the T/C (dose: 400.0 mg/kg/injection, schedule: Q01DX001 (ip), vehicle: saline with Tween-80) was 101 % of control.
For `N#Cc1c(F)c(F)c(Oc2c(F)c(F)c(F)c(F)c2F)c(F)c1Oc1c(F)c(F)c(F)c(F)c1F`, the T/C [9] was 96 % of control, the T/C [10] was 93 % of control and the T/C [11] was 88 % of control.
For `O=C(/C(=N/N=C\c1ccc([N+](=O)[O-])cc1)c1ccccc1)c1ccccc1`, the T/C (dose: 100.0 mg/kg/injection, schedule: Q01DX009 (ip), vehicle: saline with Tween-80) was 101 % of control, the T/C (dose: 100.0 mg/kg/injection, schedule: Q01DX009 (ip), vehicle: saline) was 109 % of control and the T/C (dose: 200.0 mg/kg/injection, schedule: Q01DX009 (ip), vehicle: saline with Tween-80) was 95 % of control. The T/C (dose: 200.0 mg/kg/injection, schedule: Q01DX009 (ip), vehicle: saline) was 109 % of control, the T/C (dose: 400.0 mg/kg/injection, schedule: Q01DX009 (ip), vehicle: saline with Tween-80) was 95 % of control and the T/C (dose: 400.0 mg/kg/injection, schedule: Q01DX009 (ip), vehicle: saline) was 104 % of control.
`CC(C)(C)c1ccc(-n2cnc3c(=O)[nH]c(N)nc32)cc1` was tested, and the T/C [2] was 86 % of control and the T/C [6] was 90 % of control.
In the case of `Nc1ccc(Br)cc1-c1nc(N)c2cc(Br)ccc2n1`, the T/C (dose: 50.0 mg/kg/injection, schedule: Q01DX009 (ip), vehicle: Klucel (hydroxypropylcellulose) (HPC)) is reported as 104 % of control, the T/C (dose: 100.0 mg/kg/injection, schedule: Q01DX001 (ip), vehicle: Klucel (hydroxypropylcellulose) (HPC)) is reported as 93 % of control and the T/C (dose: 100.0 mg/kg/injection, schedule: Q01DX009 (ip), vehicle: Klucel (hydroxypropylcellulose) (HPC)) is reported as 89 % of control. For the same molecule, the T/C (dose: 200.0 mg/kg/injection, schedule: Q01DX001 (ip), vehicle: Klucel (hydroxypropylcellulose) (HPC)) was 103 % of control, the T/C (dose: 200.0 mg/kg/injection, schedule: Q01DX009 (ip), vehicle: Klucel (hydroxypropylcellulose) (HPC)) was 100 % of control and the T/C (dose: 400.0 mg/kg/injection, schedule: Q01DX001 (ip), vehicle: Klucel (hydroxypropylcellulose) (HPC)) was 100 % of control.
In the case of `O=C(O)COc1ccc(Cl)cc1Cl`, the T/C (dose: 100.0 mg/kg/injection, schedule: Q04DX003 (ip), vehicle: saline sonified) is reported as 95 % of control, the T/C (dose: 200.0 mg/kg/injection, schedule: Q04DX003 (ip), vehicle: saline sonified) is reported as 92 % of control and the T/C (dose: 400.0 mg/kg/injection, schedule: Q04DX003 (ip), vehicle: saline sonified) is reported as 95 % of control.
In the case of `O=C(O)/C=C/C(=O)Nc1ccc(N=Nc2ccccc2)cc1`, the T/C [9] is reported as 93 % of control and the T/C [10] is reported as 98 % of control.
In the case of `Cc1ccc2nc(O)cc(=O)n2c1`, the T/C (dose: 50.0 mg/kg/injection, schedule: Q01DX001 (ip), vehicle: saline) is reported as 103 % of control, the T/C [3] is reported as 103 % of control and the T/C [4] is reported as 97 % of control. For the same molecule, the T/C [5] was 94 % of control.
`COc1ccc(Cl)c2c1C(=O)C(=O)N2` was tested, and the T/C [9] was 91 % of control, the T/C [10] was 98 % of control and the T/C [11] was 98 % of control.
`Cc1[nH]c2ccccc2c1C1=CC(=O)c2ccccc2C1=O` was tested, and the T/C [9] was 106 % of control, the T/C [10] was 104 % of control and the T/C [11] was 104 % of control.
With `CC(=O)Nc1ncc2ccccc2c1-c1ccc(N(CCCl)CCCl)cc1` the T/C (dose: 25.0 mg/kg/injection, schedule: Q04DX003 (ip), vehicle: DMSO) was 105 % of control, the T/C (dose: 50.0 mg/kg/injection, schedule: Q04DX003 (ip), vehicle: DMSO) was 94 % of control and the T/C (dose: 50.0 mg/kg/injection, schedule: Q04DX003 (ip), vehicle: Klucel (hydroxypropylcellulose) (HPC)) was 95 % of control. The T/C (dose: 100.0 mg/kg/injection, schedule: Q04DX003 (ip), vehicle: DMSO) was 111 % of control, the T/C (dose: 100.0 mg/kg/injection, schedule: Q04DX003 (ip), vehicle: Klucel (hydroxypropylcellulose) (HPC)) was 104 % of control and the T/C [12] was 92 % of control. The T/C (dose: 200.0 mg/kg/injection, schedule: Q04DX003 (ip), vehicle: Klucel (hydroxypropylcellulose) (HPC)) was 101 % of control, the T/C [13] was 101 % of control and the T/C (dose: 400.0 mg/kg/injection, schedule: Q04DX003 (ip), vehicle: DMSO) was 150 % of control. For the same molecule, the T/C (dose: 400.0 mg/kg/injection, schedule: Q04DX003 (ip), vehicle: Klucel (hydroxypropylcellulose) (HPC)) was 104 % of control and the T/C [14] was 97 % of control.
`O=C(CC(=O)Nc1ccccc1)Nc1ccccc1` was tested, and the T/C [9] was 100 % of control, the T/C [10] was 100 % of control and the T/C [11] was 99 % of control.
For `O=C(Nc1ccccc1C(F)(F)F)c1cccc(Cl)c1`, the T/C (dose: 100.0 mg/kg/injection, schedule: Q01DX009 (ip), vehicle: saline + alcohol) was 90 % of control, the T/C [12] was 97 % of control and the T/C (dose: 200.0 mg/kg/injection, schedule: Q01DX009 (ip), vehicle: saline + alcohol) was 93 % of control. For the same molecule, the T/C [13] was 100 % of control, the T/C (dose: 400.0 mg/kg/injection, schedule: Q01DX009 (ip), vehicle: saline + alcohol) was 96 % of control and the T/C [14] was 95 % of control.
In the case of `CC(=Nc1ccccc1)C1=C(O)C(Cc2ccc(O)c(O)c2)NC1=O` (stereo not drawn), the T/C [2] is reported as 103 % of control, the T/C [6] is reported as 103 % of control and the T/C [15] is reported as 100 % of control.
In the case of `O=C1c2ccccc2C(=O)C1c1cc2ccccc2cn1`, the T/C [2] is reported as 91 % of control, the T/C [7] is reported as 87 % of control and the T/C [6] is reported as 95 % of control. The T/C [8] was 91 % of control and the T/C [15] was 91 % of control.
With `COc1ccc(NC(=O)Oc2cc(C(C)C)ccc2C)cc1` the T/C [6] was 98 % of control, the T/C [15] was 98 % of control and the T/C (dose: 400.0 mg/kg/injection, schedule: Q04DX002 (ip), vehicle: saline with Tween-80) was 94 % of control.

From PubChem BioAssay AID256 (DTP/NCI, 2004)
